Marks after values point to notes of the source that are not given here.
What was measured:
[1] = tested on: C. tropicalis; experiment: Toxicity tests of additional substrates (absorbance at 600 nm); type: cell-based; details: 24 hours, added without solvent
Description: Additional substrates were to be tested for bioconversion following a slightly different protocol than the one noted above in Example 3. Those substrates also had to be tested for toxicity similar to the test described in Example 2, to determine the highest concentration at which a substrate could be added to a culture broth without being toxic, inhibiting growth, or interfering with the bioconversion process. C. tropicalis was grown in the presence of the substrate at three different concentrations and growth was monitored spectrophotometrically. In contrast to Example 2, all test substrates were added directly to the culture medium without dissolving in solvent. The tests were completed as follows:
On the first day, H5343 was grown in YPD medium (25.0 ml seed culture) overnight on a rotary shaker at 30° C. and 250 rpm. The next day 1.0 ml of the seed culture was used to inoculate a new flask of 50 ml YPD. This culture was grown overnight on a rotary shaker at 30° C. and 250 rpm. […]
Two control flasks were each inoculated with H5343 in 25 ml YPD. All flasks were incubated on a rotary shaker at 30° C. and 250 rpm.
After 24 hours incubation, the absorbance at 600 nm of the test and control flask cultures was determined, using uninoculated YPD broth as blank. Cultures were diluted so that the OD^600 nm measured between 0.15 and 0.3.
For strongly inhibitory substrates, a concentration of 0.1-0.2% was chosen for the bioconversion tests.

[2] = tested on: C. tropicalis strain H5343; experiment: Toxicity tests of substrates (growth by absorbance at 600 nm, streak plates); type: cell-based; details: 48 h, 30° C., dilution in YPD 1:100
Description: The toxicity test used here was similar to that used for the solvents described in Example 1. The goal was to determine the highest concentration at which a substrate could be added to a culture broth without being toxic, inhibiting growth, or interfering with the bioconversion process. C. tropicalis strain H5343 was grown in the presence of the substrate at different concentrations and growth was monitored spectrophotometrically. In order to determine if the substrate was lethal or was simply inhibiting growth, the cultures were examined under the microscope and streak plates of YPD and LB agar were prepared. Contamination of the culture with an unwanted organism could also be detected using this approach.
6 ml was transferred to the first tube and 3 ml to the rest. 1% substrate was added to the first tube and then serially diluted to give concentrations from 1% to 0.015%. Since the last tube was initially empty, the concentration in the last two tubes was the same. […] As a growth-control one culture without substrate was inoculated.
To determine if contamination had occurred, each culture was examined under the microscope and streak plates of both YPD and LB were made from the 1% and the inoculated 0.015% tube.

[3] = substrate concentration 0.01563%
[4] = substrate concentration 0.0313%

Row | SMILES | Absorbance at 600 nm ([1]; substrate concentration 0.1%) | Absorbance at 600 nm ([1]; substrate concentration 0.5%) | Absorbance at 600 nm ([1]; substrate concentration 1.0%) | ABS 600.0 nm [2, 3] | ABS 600.0 nm [2, 4] | ABS 600.0 nm ([2]; substrate concentration 0.063%) | ABS 600.0 nm ([2]; substrate concentration 0.13%) | ABS 600.0 nm ([2]; substrate concentration 0.25%) | ABS 600.0 nm ([2]; substrate concentration 0.5%) | ABS 600.0 nm ([2]; substrate concentration 1%) | Absorbance at 600 nm ([1]; substrate concentration 0.06%) | Absorbance at 600 nm ([1]; substrate concentration 0.3%) | Absorbance at 600 nm ([1]; substrate concentration 0.6%)
1 | CCCCCCc1ccsc1 [3-Hexylthiophene] | 0.933 | 1.033 | 1.223 |  |  |  |  |  |  |  |  |  | 
2 | C=C(C)[C@H]1CC=C(C)CC1 [R(+) limonene] |  |  |  | 0.123 | 0.117 | 0.106 | 0.007 | 0.000 | 0.000 | 0.000 |  |  | 
3 | C=CCCCCCCCCCCCCCC [1-Hexadecene] | 38.99 | 35.33 | 37.93 |  |  |  |  |  |  |  |  |  | 
4 | C=COCCCCCCCCCCCC [Dodecylvinylether] | 20.43 | 12.63 | 7.33 |  |  |  |  |  |  |  |  |  | 
5 | C=C[C@](C)(O)CC[C@@H]1[C@@]2(C)CCCC(C)(C)[C@@H]2CC[C@@]1(C)O [Indu-Extrakt-sclareol, sclareol] |  |  |  | 0.083 | 0.100 | 0.157 | 0.106 | 0.110 | 0.092 | 0.083 |  |  | 
6 | CCCCCCCCCCCCCCCCOC(=O)CCCCCCCC [Hexadecyl pelargonate] |  |  |  | 0.112 | 0.095 | 0.075 | 0.083 | 0.103 | 0.102 | 0.080 |  |  | 
7 | CCCCCCCCCC(CCCCCCC)C(=O)O (stereo not shown) [2-Heptylundecanoic acid] |  |  |  | 0.082 | 0.077 | 0.077 | 0.043 |  | 0.048 | 0.268 |  |  | 
8 | C=CCCCCCCCCCC [Dodecene] |  |  |  | 0.088 | 0.055 | 0.079 | 0.050 | 0.053 | 0.032 | 0.026 |  |  | 
9 | CCCCCCC(O)CCCCCCCCCCC(=O)O (stereo not shown) [12-Hydroxystearic acid] |  |  |  |  |  |  |  |  |  | 0.120 |  |  | 
10 | CCCCCOCCCCC [Pentyl Ether, Dipentyl Ether] | 2.033 | 1.863 | 1.813 |  |  |  |  |  |  |  |  |  | 
11 | CCCCCC(O)CCCCC [6-Undecanol] |  |  |  | 0.000** | 0.000** | 0.000** | 0.000** | 0.000** | 0.000** | 0.000** |  |  | 
12 | CCCCC(CC)C1OCCN1CCCC (stereo not shown) [3-Butyl-(ethylpentyl)oxazolidine, 3-Butyl-2(1-ethylpentyl)oxazolidine] |  |  |  |  |  |  |  |  |  |  | 12.5 | 0.245 | 1.18
13 | CCCCCC/C=C/CCCCCC [trans-7-tetradecene] |  |  |  | 0.117 | 0.106 | 0.112 | 0.104 | 0.103 | 0.107 | 0.095 |  |  | 
14 | C/C=C/CCCCCC [trans-2-nonene] |  |  |  | 0.112 | 0.100 | 0.105 | 0.066 | 0.000 | 0.000 | 0.000 |  |  | 
15 | CCCCCCCC/C=C\CCCCCCCCO [HD-Ocenol, oleyl alcohol] |  |  |  | 0.093 | 0.087 | 0.076 | 0.115 | 0.097 | 0.085 | 0.087 |  |  | 
16 | C=CCCCCCCCCCC [C12 a-Olefin] |  |  |  | 0.077 | 0.119 | 0.119 | 0.082 | 0.080 | 0.080 | 0.082 |  |  | 

— patent publication US7405063B2, “Biooxidation capabilities of Candida sp” (Cognis Corporation, priority 2000, dated 2008)
